Data taken from patent US11918624B2, “Therapeutic composition for use in the treatment of COVID-19 and other cytokine storm associated disorders” (priority 2020, dated 2024).
Ends that are not written are not given here.

Tests used:
guinea pig complement = assay: antibody dependent complement mediated hemolysis assay; format: biochemical; details: 1 ug/mL peptide added to guinea pig complement, titrated against turkey erythrocytes with hemolysin
Description: The peptides were synthesized by Fmoc solid phase method, purified on C18 reversa phase chromatography, tested by adding each peptide to and screened for complement inhibitory activity, in a simple antibody dependent hemolysis system in which 1 ug/mL of peptides were added to guinea pig complement, and were titrated against turkey erythrocytes mixed with hemolysin, a complement fixing anti-erythrocyte antibody solution. In the presence the peptides, the hemolythic activity of the complement was reduced, and the corresponding dilutions was determined. The inhibition was estimated by a formula: Inhibition (%)=100−(dilution of sample titer*100)/dilution of control

C5a receptor = target: T1, C5a receptor (Homo sapiens, UniProt P21730); assay: C5a-induced Ca++ influx in C5a receptor-expressing U937 cells; format: cell-based
T1 construct: U937 cells bearing the C5a receptor were preincubated with this peptide; endogenous in cells; host or cells: U937 cells, cAMP stimulated
T1 sequence (P21730 1-350): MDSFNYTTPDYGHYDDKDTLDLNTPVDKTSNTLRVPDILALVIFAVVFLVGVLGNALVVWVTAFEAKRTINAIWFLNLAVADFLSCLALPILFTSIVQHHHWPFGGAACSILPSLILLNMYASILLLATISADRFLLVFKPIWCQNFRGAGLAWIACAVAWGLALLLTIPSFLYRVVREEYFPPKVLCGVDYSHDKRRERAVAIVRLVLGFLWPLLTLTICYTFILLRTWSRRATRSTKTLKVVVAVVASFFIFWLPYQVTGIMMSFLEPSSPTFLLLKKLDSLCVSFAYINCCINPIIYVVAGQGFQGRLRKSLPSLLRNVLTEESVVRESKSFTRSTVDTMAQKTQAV
Description: It was shown by its ability to inhibit Ca^++ influx induced by C5a anaphylatoxin in C5a receptor-expressing (cAMP stimulated) U937 cells.
(§1) Particularly, it is shown the IC50 achieved at pM levels. […] In addition, in the membrane bound state the peptide remains active for at least 12 hours. Therefore, it is a very effective C5aR inhibitor.

C5a anaphylatoxin = assay: binding of AHB peptide to antisense peptides derived from C5a; details: C5a amino acids 37-43 and 61-74
C5aR = target: T2, C5aR (Homo sapiens, UniProt P21730); assay: persistence of activity of erythrocyte membrane bound peptide; details: erythrocyte membrane bound state
T2 construct: endogenous in cells; host or cells: 'C5aR bearing cells', not specified
T2 sequence (P21730 1-350): T1 sequence (P21730 1-350)
Description: The activity in vivo, in rat and pig models, is shown in the examples below. Further, it has been shown that the peptide can be delivered in vivo very safely, even at very high concentration. […] In addition, in the membrane bound state, the peptide remains active for at least 12 hours. Therefore, it is a very effective C5aR inhibitor.
as §1

endothelin receptor = target: T3, endothelin receptor (Canis lupus familiaris, UniProt Q5KSU9); assay: iv ET-1 injection in dogs pretreated with peptide; format: in vivo
T3 construct: from tissue; host or cells: whole animal (dog), in vivo
T3 sequence (Q5KSU9 21-426): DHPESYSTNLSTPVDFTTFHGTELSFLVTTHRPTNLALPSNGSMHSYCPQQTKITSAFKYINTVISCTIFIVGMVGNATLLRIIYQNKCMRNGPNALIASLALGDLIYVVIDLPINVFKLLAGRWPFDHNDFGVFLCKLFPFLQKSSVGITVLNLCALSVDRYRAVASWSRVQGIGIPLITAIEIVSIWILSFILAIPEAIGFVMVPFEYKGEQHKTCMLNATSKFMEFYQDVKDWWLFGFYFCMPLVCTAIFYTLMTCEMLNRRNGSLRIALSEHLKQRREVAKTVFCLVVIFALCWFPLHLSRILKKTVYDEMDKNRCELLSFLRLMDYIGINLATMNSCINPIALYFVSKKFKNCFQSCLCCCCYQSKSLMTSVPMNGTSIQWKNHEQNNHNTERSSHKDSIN
Description: One of the peptides was subsequently tested in dogs and confirmed its biological effect in vivo. […] The elevated ET-1 level was marked with profound changes in circulation (details to be published elsewhere). However, pretreatment of dogs with 100 ug/kg ETR-P1/fl peptide removed the cardiovascular effects of injected ET-1 peptide from the circulation within 10 min and the measured endothelin level become normal. […] It is known in the previous art and has been patented and the patent expired.

Substance | Hemolysis inhibition (% of maximum) (guinea pig complement) | further results
LTAYVVKVFSLA [LTA1309, LTAYVVKVFSLA] | >80% | 
VQAERSGIPIVTSPYQI [VQA1857, VQAERSGIPIVTSPYQI] | >80% | 
ERLGREGVQ [ERL1041, ERLGREGVQ] | >20-40% | 
LRTWSRRATRSTKTLKVV (Complement factor 5a receptor targeting inhibitor LRT2463) [PR226] |  | biphasic activity on C5a receptor (C5a receptor): inhibitor at high concentration and activator as low concentration
DDLKQLANGVDRYI [DDL1619, DDLKQLANGVDRYI] | >80% | 
KYKHSVVKKSDGA (PL12-AHB peptide derived from C5a anaphylatoxin) |  | inhibition of C5a receptor activity / C5a-induced Ca++ influx (C5a receptor): not able to inhibit
DYGHYDDKDTLDLNTPVD (Complement factor 5a receptor targeting inhibitor DYG2094) [PR10] |  | inhibition of C5a receptor activity / C5a-induced Ca++ influx (C5a receptor): did not inhibit the receptor activity; binding to antisense peptides derived from C5a anaphylatoxin (C5a anaphylatoxin): bound to two of its corresponding antisense peptides
NIFLKDSITTWE [NIF1464, NIFLKDSITTWE] | >40-60% | 
APNHLLEVRV [AP1314, APNHLLEVRV] | >80% | 
LRANISHKDMQLGR (PL61-AHB peptide derived from C5a anaphylatoxin) |  | inhibition of C5a receptor activity / C5a-induced Ca++ influx (C5a receptor): not able to inhibit
(LRTWSRRATRSTKTLKVV)8K4K2KV [PR226MAP] |  | concentration of complete inhibition of C5a triggered Ca influx (C5a receptor; FIG. 2): 200 pM; concentration level at which C5a triggered Ca influx is inhibited (C5a receptor; serial dilution): femtomolar concentration levels; IC50 (C5a receptor; serial dilution, FIG. 2, read-out: IC50 of C5a triggered Ca influx): 1 pM; time the peptide remains active (C5aR): at least 12 hours
TAYVVKVFSLAVN [TAY1409, TAYVVKVFSLAVN] | ≤20% | 
SDKKGICVADPFEVT [SDK1606, SDKKGICVADPFEVT] | >80% | 
SDAGLTFTSS [SDA984, SDAGLTFTSS] | >80% | 
GQWKIRAYYENS [GQW1513, GQWKIRAYYENS] | ≤20% | 
LNLCALSVDRYRAVASWSRVI (Endothelin A receptor targeting inhibitor LNL2390) [ETR-P1/fl] |  | measured endothelin level after injected ET-1 (endothelin receptor; dogs, pretreatment 100 ug/kg): become normal; time to removal of cardiovascular effects of injected ET-1 (endothelin receptor; dogs, pretreatment 100 ug/kg, iv ET-1): ≤ 10 min; decrease of normal baseline level of ET peptide in plasma (endothelin receptor; dogs, transient): 30-50%; increase of ET-1 binding capacity of the endothelin receptor (endothelin receptor; receptor frozen in inactive conformation): 4 times
KRPQDAKNT [KRP1057, KRPQDAKNT] | >20-40% | 
QALPYSTVGNSNL [QAL1363, QALPYSTVGNSNL] | >40-60% | 
ESASLRSEETKV [ESA1331, ESASLRSEETKV] | >20-40% | 
QKKIEEIAAKYKHS (PL3-AHB peptide derived from C5a anaphylatoxin) |  | inhibition of C5a receptor activity / C5a-induced Ca++ influx (C5a receptor): not able to inhibit
LHLSVRTLELRP [LHL1431, LHLSVRTLELRP] | >40-60% | 
RAARISLGPRSIKAFTE (PL37-AHB peptide derived from C5a anaphylatoxin) |  | inhibition of C5a receptor activity / C5a-induced Ca++ influx (C5a receptor): not able to inhibit
QRSYTVAIA [QRS1008, QRSYTVAIA] | >40-60% | 
LRLPYVVREQL [LRL1384, LRLPYVVREQL] | ≤20% | 
LNCQRYYGGGGYST [LNC1538, LNCQRYYGGGGYST] | >20-40% | 
IAVHYLDETEQW [IAV1501, IAVHYLDETEQW] | ≤20% | 
LSRKVLLDGV [LSR1099, LSRKVLLDGV] | >20-40% | 
HWPFGGAACSILPSLI (Complement factor 5a receptor targeting inhibitor HWP1667) [PR101] |  | inhibition of C5a receptor activity / C5a-induced Ca++ influx (C5a receptor): did not affect the C5a-induced Ca^++ influx
